Reference: ChEMBL document CHEMBL1157530, “Cytotoxic and antibacterial sesquiterpenes from Thespesia populnea” (J Nat Prod, 2008)
Values after ≈ are worked out from the molar mass of the structure shown.

What was measured:
[1] = tested on: HeLa; assay: Cytotoxicity against human HeLa cells by SRB assay; assay type: functional, cell-based
[2] = tested on: KB; assay: Cytotoxicity against human KB cells by SRB assay; assay type: functional, cell-based
[3] = tested on: HT-29; assay: Cytotoxicity against human HT29 cells by SRB assay; assay type: functional, cell-based
[4] = tested on: MCF7; assay: Cytotoxicity against human MCF7 cells by SRB assay; assay type: functional, cell-based
[5] = tested on: Bacillus subtilis; assay: Antibacterial activity against Bacillus subtilis; assay type: functional
[6] = tested on: Enterococcus faecalis; assay: Antibacterial activity against Enterococcus faecalis; assay type: functional
[7] = tested on: Staphylococcus aureus; assay: Antibacterial activity against Staphylococcus aureus TISTR517; assay type: functional

Row | Compound | MIC [5] | IC50 [1] | IC50 [2] | IC50 [3] | IC50 [4] | MIC [6] | MIC [7]
1 | Cc1cc2c(C(C)C)ccc(C)c2cc1O | 0.59 µg/mL (≈ 2.75 µM) | > 5 µg/mL | > 5 µg/mL | > 5 µg/mL | > 5 µg/mL |  | 
2 | COc1c(O)c(C=O)c2c(O)c(-c3c(C)cc4c(C(C)C)c(OC)c(O)c(C=O)c4c3O)c(C)cc2c1C(C)C [6,6'-METHOXYGOSSYPOL] | 2.34 µg/mL (≈ 4.28 µM) | > 5 µg/mL | > 5 µg/mL | 3 µg/mL (≈ 5.49 µM) | 4 µg/mL (≈ 7.32 µM) | 1.17 µg/mL (≈ 2.14 µM) | 4.69 µg/mL (≈ 8.58 µM)
3 | Cc1cc2c(C(C)C)c(O)c(O)c(C=O)c2c(O)c1-c1c(C)cc2c(C(C)C)c(O)c(O)c(C=O)c2c1O [GOSSYPOL] | 1.17 µg/mL (≈ 2.26 µM) | 0.08 µg/mL (≈ 0.154 µM) | 0.04 µg/mL (≈ 0.0771 µM) | > 5 µg/mL |  |  | 1.17 µg/mL (≈ 2.26 µM)
4 | CC1=C2OCC(C)c3ccc(C)c(c32)C(=O)C1=O (configuration not stated) [MANSONONE E] | 4.69 µg/mL (≈ 19.4 µM) | 0.55 µg/mL (≈ 2.27 µM) | 0.4 µg/mL (≈ 1.65 µM) | 0.18 µg/mL (≈ 0.743 µM) | 0.05 µg/mL (≈ 0.206 µM) |  | 
5 | CC1=CC2=C(C(C)C)C(=O)CC(C)C2=C(O)C1=O (configuration not stated) [MANSONONE S] |  | > 5 µg/mL | > 5 µg/mL | > 5 µg/mL | > 5 µg/mL |  | 

More lines, main results first:

Row | MIC [5] | Compound | IC50 [1] | IC50 [2] | IC50 [3] | IC50 [4] | MIC [6] | MIC [7]
6 | 2.34 µg/mL (≈ 9.66 µM) | CC1=Cc2c(c(C)cc3c2C(C)CO3)C(=O)C1=O (configuration not stated) [MANSONONE D] | 2.8 µg/mL (≈ 11.6 µM) | 4.9 µg/mL (≈ 20.2 µM) | > 5 µg/mL | 0.8 µg/mL (≈ 3.3 µM) |  | 
7 | 4.69 µg/mL (≈ 16.5 µM) | CC1=Cc2c(c(C)cc3c2C(C)COC3(C)C)C(=O)C1=O (configuration not stated) [POPULENE C] | 3.4 µg/mL (≈ 12 µM) | 3 µg/mL (≈ 10.6 µM) | 2.9 µg/mL (≈ 10.2 µM) | 2.35 µg/mL (≈ 8.26 µM) |  | > 10 µg/mL
8 | 4.69 µg/mL (≈ 16.3 µM) | Cc1cc2c(c(O)c1O)[C@H](C)CC1=C2[C@@H](C)COC1(C)C [POPULENE D] | 0.95 µg/mL (≈ 3.29 µM) | 3.1 µg/mL (≈ 10.7 µM) | 2.37 µg/mL (≈ 8.22 µM) | 1.85 µg/mL (≈ 6.41 µM) |  | 
